≈ marks a conversion by molar mass, not a printed value. Where “and” joins values, the source holds several entries; their conditions need not be identical. Identical values can stand only once.
Legend:
murine PGP [1] = biological target: T1, murine PGP (Mus musculus, UniProt Q8CHP8); experiment: SAR: CP1, CP2 and analogs on PGP phosphatase activity (PG); assay type: biochemical; design: His6 (N, cleaved yes); made in house; host or cells: Escherichia coli BL21 (DE3), pETM11, co-expressed with groES-groEL-tig; details: for inhibition of mPGP activity at 40 µM CP compared to DMSO control (%): single experiments Exp #1-3
T1 sequence (Q8CHP8 1-321): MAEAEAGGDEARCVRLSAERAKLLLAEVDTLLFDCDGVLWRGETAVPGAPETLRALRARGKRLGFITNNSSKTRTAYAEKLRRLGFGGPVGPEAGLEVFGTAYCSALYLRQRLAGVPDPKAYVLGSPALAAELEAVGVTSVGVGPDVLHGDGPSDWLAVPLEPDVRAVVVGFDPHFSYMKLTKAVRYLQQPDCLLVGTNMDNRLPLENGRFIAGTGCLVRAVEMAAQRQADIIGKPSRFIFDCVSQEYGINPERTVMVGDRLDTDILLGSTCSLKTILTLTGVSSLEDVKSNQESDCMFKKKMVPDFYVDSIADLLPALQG
Description: However, the DMSO concentration was kept constant across each assay. For SAR experiments, all compound stocks were prepared at 10 mM in 100% DMSO. A constant final DMSO concentration of 0.4% was maintained under all conditions, and solvent control samples contained 0.4% DMSO without compounds.
PGP phosphatase activity were assessed using recombinant, purified murine PGP and PG as a

murine PGP [2] = biological target: T1, murine PGP
[3] = Compound solubility in 100% DMSO

For `O=C(O)c1cccc(NC(=O)c2ccc(Oc3ccc(C(=O)Nc4cccc(C(=O)O)c4)cc3)cc2)c1` [1C], the “inhibition of mPGP activity at 40 µM CP compared to DMSO control (%)” value (“inhibition of mPGP activity at 40 µM CP … (%)” for short) (murine PGP [1]) was 57.0652% and 64.9718% and 66.7954%, the “mPGP activity in presence of CP relative to DMSO controls, mPGP on PG (norm.)” value (murine PGP [1]; CP log[M] -4) was 0.1618 and 0.1854 and 0.172 and the “mPGP activity in presence of CP relative to DMSO controls, mPGP on PG (norm.)” value (murine PGP [1]; CP log[M] -4.12494) was 0.2268 and 0.2271. For the same molecule, the “mPGP activity in presence of CP relative to DMSO controls, mPGP on PG (norm.)” value (murine PGP [1]; CP log[M] -4.30103) was 0.3124 and 0.2854 and 0.2844, the “mPGP activity in presence of CP relative to DMSO controls, mPGP on PG (norm.)” value (murine PGP [1]; CP log[M] -4.60206) was 0.427 and 0.4195 and 0.4312 and the “mPGP activity in presence of CP relative to DMSO controls, mPGP on PG (norm.)” value (murine PGP [1]; CP log[M] -4.69897) was 0.5416 and 0.5073 and 0.4404. For the same molecule, the “mPGP activity in presence of CP relative to DMSO controls, mPGP on PG (norm.)” value (murine PGP [1]; CP log[M] -4.82391) was 0.6225 and 0.5805 and 0.5711, the “mPGP activity in presence of CP relative to DMSO controls, mPGP on PG (norm.)” value (murine PGP [1]; CP log[M] -5) was 0.7056 and 0.6098 and 0.6376 and the “mPGP activity in presence of CP relative to DMSO controls, mPGP on PG (norm.)” value (murine PGP [1]; CP log[M] -5.30103) was 0.8 and 0.7439 and 0.7317. For the same molecule, the “mPGP activity in presence of CP relative to DMSO controls, mPGP on PG (norm.)” value (murine PGP [1]; CP log[M] -5.60206) was 0.9101 and 0.8268 and 0.7615 and the “mPGP activity in presence of CP relative to DMSO controls, mPGP on PG (norm.)” value (murine PGP [1]; CP log[M] -5.90309) was 0.8683 and 0.8326.
With `O=C(O)c1ccccc1NC(=O)c1ccccc1Oc1ccccc1C(=O)Nc1ccccc1C(=O)O` [1D] the “inhibition of mPGP activity at 40 µM CP … (%)” value (murine PGP [1]) was 14.6739% and 27.6836% and 20.8494%.
With `O=C(O)c1cc2ccccc2c(-c2c(O)c(C(=O)O)cc3ccccc23)c1O` [GYJACFGQPFXKCA-UHFFFAOYSA-N] the IC50 (murine PGP [2]) was > 50 µM.
With `O=C(O)c1cc(Cc2ccc(NC(=O)c3ccccc3[N+](=O)[O-])c(C(=O)O)c2)ccc1NC(=O)c1ccccc1[N+](=O)[O-]` [2B] the “inhibition of mPGP activity at 40 µM CP … (%)” value (murine PGP [1]) was 97.486% and 99.4924% and 100.275%, the “mPGP activity in presence of CP relative to DMSO controls, mPGP on PG (norm.)” value (murine PGP [1]; CP log[M] -4.39794) was 0.02406 and 0.01842 and 0.02506 and the “mPGP activity in presence of CP relative to DMSO controls, mPGP on PG (norm.)” value (murine PGP [1]; CP log[M] -4.69897) was 0.04813 and 0.03947 and 0.05013. The “mPGP activity in presence of CP relative to DMSO controls, mPGP on PG (norm.)” value (murine PGP [1]; CP log[M] -5) was 0.08824 and 0.08421 and 0.08772, the “mPGP activity in presence of CP relative to DMSO controls, mPGP on PG (norm.)” value (murine PGP [1]; CP log[M] -5.30103) was 0.1631 and 0.1684 and 0.1604 and the “mPGP activity in presence of CP relative to DMSO controls, mPGP on PG (norm.)” value (murine PGP [1]; CP log[M] -5.60206) was 0.2914 and 0.2711 and 0.2932. For the same molecule, the “mPGP activity in presence of CP relative to DMSO controls, mPGP on PG (norm.)” value (murine PGP [1]; CP log[M] -5.90309) was 0.4679 and 0.4553 and 0.4662, the “mPGP activity in presence of CP relative to DMSO controls, mPGP on PG (norm.)” value (murine PGP [1]; CP log[M] -6.20412) was 0.6203 and 0.5816 and 0.584 and the “mPGP activity in presence of CP relative to DMSO controls, mPGP on PG (norm.)” value (murine PGP [1]; CP log[M] -6.50515) was 0.7781 and 0.7842 and 0.7769. The “mPGP activity in presence of CP relative to DMSO controls, mPGP on PG (norm.)” value (murine PGP [1]; CP log[M] -6.80618) was 0.8663 and 0.8184 and 0.817, the “mPGP activity in presence of CP relative to DMSO controls, mPGP on PG (norm.)” value (murine PGP [1]; CP log[M] -7.10721) was 0.9358 and 0.8579 and 0.8521 and the “mPGP activity in presence of CP relative to DMSO controls, mPGP on PG (norm.)” value (murine PGP [1]; CP log[M] -7.40824) was 0.9332 and 0.9316 and 0.9248. The “PGP inhibitory potency compared to parental compound” value (murine PGP [1]; PG dephosphorylation assay) was “slightly more potent than the parental compound” and the “solubility in 100% DMSO” value [3] was 10 mM (≈ 5.84 mg/mL).
For `COc1ccc(C(=O)Nc2ccccc2C(=O)O)cc1` [1E], the “inhibition of mPGP activity at 40 µM CP … (%)” value (murine PGP [1]) was 33.1522% and 38.1356% and 45.1737%.
With `Cc1nnc(SCC(=O)Nc2ccc(Cc3ccc(NC(=O)CSc4nnc(C)s4)c(C(=O)O)c3)cc2C(=O)O)s1` [2E] the “inhibition of mPGP activity at 40 µM CP … (%)” value (murine PGP [1]) was 43.2961% and 38.3249% and 35.989% and the “solubility in 100% DMSO” value [3] was 100 mM (≈ 63.1 mg/mL).
For `O=C(Cc1cccs1)Nc1ccc(Cc2ccc(NC(=O)Cc3cccs3)c(C(=O)O)c2)cc1C(=O)O` [2C], the “inhibition of mPGP activity at 40 µM CP … (%)” value (murine PGP [1]) was 80.4469% and 79.9492% and 79.3956%, the “mPGP activity in presence of CP relative to DMSO controls, mPGP on PG (norm.)” value (murine PGP [1]; CP log[M] -4.09691) was 0.1542 and 0.1663 and 0.1408 and the “mPGP activity in presence of CP relative to DMSO controls, mPGP on PG (norm.)” value (murine PGP [1]; CP log[M] -4.39794) was 0.2193 and 0.2518 and 0.2324. For the same molecule, the “mPGP activity in presence of CP relative to DMSO controls, mPGP on PG (norm.)” value (murine PGP [1]; CP log[M] -4.69897) was 0.388 and 0.3967 and 0.3732, the “mPGP activity in presence of CP relative to DMSO controls, mPGP on PG (norm.)” value (murine PGP [1]; CP log[M] -5) was 0.5639 and 0.5534 and 0.5023 and the “mPGP activity in presence of CP relative to DMSO controls, mPGP on PG (norm.)” value (murine PGP [1]; CP log[M] -5.30103) was 0.6916 and 0.6556 and 0.5915. The “mPGP activity in presence of CP relative to DMSO controls, mPGP on PG (norm.)” value (murine PGP [1]; CP log[M] -5.60206) was 0.788 and 0.7767 and 0.6502, the “mPGP activity in presence of CP relative to DMSO controls, mPGP on PG (norm.)” value (murine PGP [1]; CP log[M] -5.90309) was 0.8578 and 0.8527 and 0.8404 and the “mPGP activity in presence of CP relative to DMSO controls, mPGP on PG (norm.)” value (murine PGP [1]; CP log[M] -6.20412) was 0.853 and 0.8789 and 0.9014. The “mPGP activity in presence of CP relative to DMSO controls, mPGP on PG (norm.)” value (murine PGP [1]; CP log[M] -6.50515) was 0.9181 and 0.905 and 0.9155, the “mPGP activity in presence of CP relative to DMSO controls, mPGP on PG (norm.)” value (murine PGP [1]; CP log[M] -6.80618) was 0.9349 and 0.9264 and 0.946 and the “mPGP activity in presence of CP relative to DMSO controls, mPGP on PG (norm.)” value (murine PGP [1]; CP log[M] -7.10721) was 1.002 and 0.9691 and 0.9624.
With `O=C(Nc1ccc(Cc2ccc(NC(=O)c3cccs3)c(C(=O)O)c2)cc1C(=O)O)c1cccs1` [2D] the “inhibition of mPGP activity at 40 µM CP … (%)” value (murine PGP [1]) was 93.8547% and 93.1472% and 91.7582%, the “mPGP activity in presence of CP relative to DMSO controls, mPGP on PG (norm.)” value (murine PGP [1]; CP log[M] -4.39794) was 0.09632 and 0.08995 and 0.05602 and the “mPGP activity in presence of CP relative to DMSO controls, mPGP on PG (norm.)” value (murine PGP [1]; CP log[M] -4.69897) was 0.1303 and 0.1085 and 0.126. For the same molecule, the “mPGP activity in presence of CP relative to DMSO controls, mPGP on PG (norm.)” value (murine PGP [1]; CP log[M] -5) was 0.1756 and 0.1746 and 0.1485, the “mPGP activity in presence of CP relative to DMSO controls, mPGP on PG (norm.)” value (murine PGP [1]; CP log[M] -5.30103) was 0.2578 and 0.2672 and 0.2745 and the “mPGP activity in presence of CP relative to DMSO controls, mPGP on PG (norm.)” value (murine PGP [1]; CP log[M] -5.60206) was 0.4504 and 0.4206 and 0.395. The “mPGP activity in presence of CP relative to DMSO controls, mPGP on PG (norm.)” value (murine PGP [1]; CP log[M] -5.90309) was 0.5949 and 0.6032 and 0.5826, the “mPGP activity in presence of CP relative to DMSO controls, mPGP on PG (norm.)” value (murine PGP [1]; CP log[M] -6.20412) was 0.7592 and 0.7328 and 0.6807 and the “mPGP activity in presence of CP relative to DMSO controls, mPGP on PG (norm.)” value (murine PGP [1]; CP log[M] -6.50515) was 0.8952 and 0.8386 and 0.8543. The “mPGP activity in presence of CP relative to DMSO controls, mPGP on PG (norm.)” value (murine PGP [1]; CP log[M] -6.80618) was 0.932 and 0.8836 and 0.7843, the “mPGP activity in presence of CP relative to DMSO controls, mPGP on PG (norm.)” value (murine PGP [1]; CP log[M] -7.10721) was 0.9207 and 0.918 and 0.9468 and the “mPGP activity in presence of CP relative to DMSO controls, mPGP on PG (norm.)” value (murine PGP [1]; CP log[M] -7.40824) was 0.9632 and 0.9206 and 0.9552. The “solubility in 100% DMSO” value [3] was 50 mM (≈ 25.3 mg/mL).
In the case of `O=C(O)c1ccccc1N1C(=O)c2ccc(Oc3ccc4c(c3)C(=O)N(c3ccccc3C(=O)O)C4=O)cc2C1=O` [1B], the “inhibition of mPGP activity at 40 µM CP … (%)” value (murine PGP [1]) is reported as 29.6196% and 23.1638% and 21.6216%.

Reference: PMC9652372, “Glycolytic flux control by drugging phosphoglycolate phosphatase” (Nature Communications, 2022)
